IC50 data for 24 compounds are collected here from patent US6340670B1, “Acetal benzylmaltosides as inhibitors of smooth muscle cell proliferation” (American Home Products Corporation, priority 1998, dated 2002).

The test system of the assay is Porcine Smooth Muscle Cell. In words: Effects of Compounds on Cell Proliferation Using 3H Thymidine Incorporation. The format is cell-based. The conditions noted are these: serum/growth factor stimulated cells, 24-36 h incubation, read-out: Porcine Smooth Muscle Cell Antiproliferation IC50. How it is done:
Effects of Compounds on Cell Proliferation Using ^3H Thymidine Incorporation
Human and porcine smooth muscle cells were tested in early passage (generally passage 3-7) at sub-confluent conditions. Cultures were grown in 16 mm (24 well) multi-well culture dishes in medium 199 supplemented with 10% fetal bovine serum and 2% antibiotic/antimycotic. At sub-confluence, the cells were placed in a defined serum free medium (AIM-V; Gibco) for 24-48 h prior to initiating the experimental protocol.
Compounds were added to each well at 50 fold dilution (20 μL/well) and the plates were incubated for 24-36 h at 37° C. in 5% CO2. Compounds were initially dissolved in 50% ethanol and serially diluted into media. Compounds were routinely evaluated at concentrations from 1 to 100 μM. As a control, grade II porcine intestinal mucosal heparin (sodium salt) was routinely evaluated in all cell preparations at concentrations from 0.1 to 100 μg/mL.
At the completion of the test procedure, plates were placed on ice, washed three times with ice cold phosphate buffered saline (PBS) and incubated in ice cold 10% trichloroacetic acid (TCA) got 30 min to remove acid soluble proteins. Solution was transferred to scintillation vials containing 0.4 N HCl (500 μL/vial to neutralize NaOH) and each well was rinsed two times with water (500 μL) for a total volume of 2 mL/vial.
Data was obtained, in triplicate, for both control and experimental samples. Control (100%) data was obtained from maximally stimulated cells, as the result of growth factor or serum stimulation. Experimental data was obtained from cells maximally stimulated with growth factor or serum and treated with compound. Data are expressed as an IC50 or percent inhibition in Table I below.
For orientation: Incorporation of labelled thymidine or its analogues reports DNA synthesis.

Structures are written as SMILES.

As for `COC(=O)Nc1cc(COC2OC(CO)C(OC3OC4COC(c5ccccc5)OC4C(O)C3O)C(O)C2O)ccc1Cl` [Example 80, N-{5-[(4′,6′-O-Benzylidene-β-D-maltosyl)-oxy-methyl]-2-chloro-phenyl}-carbamic acid methyl ester], the IC50 came to 7570 nM. Under `CC(=O)Nc1cc(COC2OC(COC(=O)c3cccnc3)C(OC3OC4COC(c5ccccc5)OC4C(O)C3O)C(O)C2O)ccc1Cl` (stereo not drawn) [Example 54, Nicotinic acid 6-(3-acetylamino-4-chloro-benzyloxy)-3-(7,8-dihydroxy-2-phenyl-hexahydro-pyrano[32-d][1,3]dioxin-6-yloxy)-4,5-dihydroxy-tetrahydro-pyran-2-ylmethyl ester] stands 211 nM; under `CC(=O)Nc1cc(CO[C@@H]2O[C@H](COC(=O)c3ccccc3)[C@@H](O[C@H]3O[C@@H]4COC(c5ccc([N+](=O)[O-])cc5)O[C@H]4[C@H](O)[C@H]3O)[C@H](O)[C@H]2O)ccc1Cl` (stereo partly drawn) [Example 11, N-(5-{[6-O-Benzoyl-4′,6′-O-(4-nitro)-benzylidene-β-D-maltosyl]-oxy-methyl}-2-chloro-phenyl)-acetamide], 3 nM; under `CC(=O)Nc1cc(COC2OC(COC(=O)c3ccc(Cl)c([N+](=O)[O-])c3)C(OC3OC4COC(c5ccccc5)OC4C(O)C3OC(C)=O)C(OC(C)=O)C2OC(C)=O)ccc1Cl` [Example 39, N-{5-[(2,2′,3,-Tri-O-Acetyl-6-O-(4-chloro-3-nitrobenzoyl)-4′,6′-O-(benzylidene)-β-D-maltosyl)-oxymethyl]-2-chloro-phenyl)-acetamide], 2530 nM. The value for `CC(=O)Nc1cc(COC2OC(COC(=O)c3ccccc3)C(OC3OC4COC(C)OC4C(O)C3O)C(O)C2O)ccc1Cl` [Example 2, (R)-N-[5-[[[6-O-Benzoyl-4-O-(4,6-O-ethylidene-α-D-glucopyranosyl)-β-D-glucopyranosyl]oxy]methyl]-2-chlorophenyl]acetamide] was 103 nM; that for `O=C(Nc1cc(CO[C@@H]2O[C@H](CO)[C@@H](O[C@H]3O[C@@H]4COC(c5ccccc5)O[C@H]4[C@H](O)[C@H]3O)[C@H](O)[C@H]2O)ccc1Cl)c1ccco1` (stereo partly drawn) [Example 63, Furan-2-carboxylic acid {5-[(4′,6′-O-benzylidene-β-D-maltosyl)-oxy-methyl]-2-chloro-phenyl}-amide] was 7730 nM; that for `O=C(Nc1cc(COC2OC(CO)C(OC3OC4COC(c5ccccc5)OC4C(O)C3O)C(O)C2O)ccc1Cl)c1ccc(C(=O)c2ccccc2)cc1` [Example 70, 4-Benzoyl-N-{5-[(4′,6′-O-benzylidene-β-D-maltosyl)-oxy-methyl]-2-chloro-phenyl}-benzamide] was 9940 nM. As to `O=C(Nc1cc(CO[C@@H]2O[C@H](COC(=O)c3ccccc3)[C@@H](O[C@H]3O[C@@H]4CO[C@@H](c5ccccc5)O[C@H]4[C@H](O)[C@H]3O)[C@H](O)[C@H]2O)ccc1Cl)c1cccnc1` [Example 62, (R)-N-[5-[[[6-O-Benzoyl-4-O-[4′,6′-O-(phenylmethylene)-α-D-glucopyranosyl]-β-D-glucopyranosyl]oxy]methyl]-2-chlorophenyl]-3-pyridinecarboxamide], the IC50 was determined as 23 nM. Turning to `CC(=O)Nc1cc(COC2OC(COC(C)=O)C(OC3OC4COC(c5ccccc5)OC4C(OC(C)=O)C3OC(C)=O)C(OC(C)=O)C2OC(C)=O)ccc1Cl` [Example 25, N-{5-[(4′,6′-O-Benzylidene-2,2′,3,3′,6-penta-O-acetyl-β-D-maltosyl-oxy)-methyl]-2-chloro-phenyl}-acetamide], the IC50 was 700 nM. Under `CC(=O)Nc1cc(COC2OC(COC(=O)CCCc3ccccc3)C(OC3OC4COC(c5ccccc5)OC4C(O)C3O)C(O)C2O)ccc1Cl` [Example 49, N-{5-[(4′,6′-O-Benzylidene-6-O-phenyl-propyl-carboxyl-β-D-maltosyl)-oxy-methyl]-2-chloro-phenyl}-acetamide] stands 104 nM. Under `CC(=O)OC1C(OC2C(COC(=O)c3ccccc3)OC(OCc3ccc(Cl)c([N+](=O)[O-])c3)C(OC(C)=O)C2OC(C)=O)OC2COC(c3ccccc3)OC2C1OC(C)=O` [Example 31, (R)-(4-Chloro-3-nitrophenyl)methyl-2,3-di-O-acetyl-6-O-benzoyl-4-O-[2,3-di-O-acetyl-4,6-O-(phenylmethylene)-α-D-glucopyranosyl]-β-D-glucopyranoside] stands 380 nM; under `O=C(Nc1cc(CO[C@@H]2O[C@H](COC(=O)c3ccccc3I)[C@@H](O[C@H]3O[C@@H]4COC(c5ccccc5)O[C@H]4[C@H](O)[C@H]3O)[C@H](O)[C@H]2O)ccc1Cl)c1ccc(C(=O)c2ccccc2)cc1` (stereo partly drawn) [Example 72, 4-Benzoyl-N-{5-[(4′,6′-O-benzylidene-6-O-(2-iodo)-benzoyl-β-D-maltosyl)-oxy-methyl]-2-chloro-phenyl}-benzamide], 16 nM. As to `O=C(OCC1OC(OCc2ccc(Cl)cc2)C(O)C(O)C1OC1OC2COC(c3ccccc3)OC2C(O)C1O)c1ccccc1` [Example 69, Benzoic acid 1-O-(4-chloro)-benzyl-4′,6′-O-benzylidene-6-deoxy-β-D-malto-6-yl ester], the IC50 is 1530 nM. Under `CC(NC(=O)OCC1c2ccccc2-c2ccccc21)C(=O)Nc1cc(COC2OC(CO)C(OC3OC4COC(c5ccccc5)OC4C(O)C3O)C(O)C2O)ccc1Cl` [Example 75, (1-{5-[(4′,6′-O-Benzylidene-β-D-maltosyl)-oxy-methyl]-2-chloro-phenyl-carbamoyl}ethyl)-carbamic acid 9H-fluoren-9ylmethyl ester] stands 4690 nM; under `CC(=O)Nc1cc(CO[C@@H]2O[C@H](COC(=O)CCc3ccccc3)[C@@H](O[C@H]3O[C@@H]4COC(c5ccccc5)O[C@H]4[C@H](O)[C@H]3O)[C@H](O)[C@H]2O)ccc1Cl` (stereo partly drawn) [Example 48, N-{5-[(4′,6′-O-Benzylidene-6-O-phenyl-ethyl-carboxyl-β-D-maltosyl)-oxy-methyl]-2-chloro-phenyl}-acetamide], 7 nM. Under `CC(=O)Nc1cc(COC2OC(COC(=O)c3ccccc3I)C(OC3OC4COC(c5ccccc5)OC4C(O)C3O)C(O)C2O)ccc1Cl` [Example 43, N-{5-[(4′,6′-O-Benzylidene-6-O-(2-iodo)-benzoyl-β-D-maltosyl)-oxy-methyl]-2-chloro-phenyl)-acetamide] stands 8 nM; under `COC(=O)Nc1cc(COC2OC(COC(=O)c3ccccc3)C(OC3OC4COC(c5ccccc5)OC4C(O)C3O)C(O)C2O)ccc1Cl` [Example 81, N-{5-[(6-O-Benzoyl-4′,6′-O-benzylidene-β-D-maltosyl)-oxy-methyl]-2-chloro-phenyl}-carbamic acid methyl ester], 14 nM. The value for `O=C(OCC1OC(OCc2ccc(Cl)c([N+](=O)[O-])c2)C(O)C(O)C1OC1OC2COC(c3ccccc3)OC2C(O)C1O)c1ccccc1` [Example 30, 4-Chloro-3-nitro-benzyl-6-O-benzoyl-4′,6′-O-benyzlidene-β-D-maltoside] was 351 nM; that for `CC(=O)Nc1cc(COC2OC(COC(=O)c3ccccc3)C(OC3OC4COC(CCC#N)OC4C(O)C3O)C(O)C2O)ccc1Cl` [Example 19, N-{5-{[6-O-Benzoyl-4′,6′-O-((1R)-3-cyanopropylidene)-β-D-maltosyloxy]-methyl}-2-chloro-phenyl}-acetamide] was 1 nM.

On to `CC(=O)Nc1cc(COC2OC(COC(=O)c3ccc(C#N)cc3)C(OC3OC4COC(c5ccccc5)OC4C(O)C3O)C(O)C2O)ccc1Cl` [Example 40, (R)-N-[2-Chloro-5-[[[6-O-(4-cyanobenzoyl)-4-O-[4,6O-(phenylmethylene)-α-D-glucopyranosyl]-β-D-glucopyranosyl]oxy]methyl]phenyl]acetamide], for which the IC50 was determined as 92 nM. The value for `CC(=O)Nc1cc(COC2OC(COC(=O)c3ccc(I)cc3)C(OC3OC4COC(c5ccccc5)OC4C(O)C3O)C(O)C2O)ccc1Cl` [Example 45, N-{5-[(4′,6′-O-Benzylidene-6-(4-iodo-benzoyl)-oxy-β-D-maltosyl)-oxy-methyl]-2-chloro-phenyl}-acetamide] was 6440 nM; that for `CC(=O)Nc1cc(COC2OC(COC(=O)c3ccc(Cl)c([N+](=O)[O-])c3)C(OC3OC4COC(c5ccccc5)OC4C(O)C3O)C(O)C2O)ccc1Cl` [Example 38, (R)-N-[2-Chloro-5-[[[6-O-(4-chloro-3-nitrobenzoyl)-4-O-[4,6O-(phenylmethylene)-α-D-glucopyranosyl]-β-D-glucopyranosyl]oxy]methyl]phenyl]acetamide] was 187 nM.

For `CC(=O)Nc1cc(COC2OC(COC(=O)c3ccc([N+](=O)[O-])cc3)C(OC3OC4COC(c5ccccc5)OC4C(O)C3O)C(O)C2O)ccc1Cl` [Example 41, (R)-N-[2-Chloro-5-[[[6-O-(4-nitrobenzoyl)-4-O-[4,6O-(phenylmethylene)-α-D-glucopyranosyl]-β-D-glucopyranosyl]oxy]methyl]phenyl]acetamide], the IC50 amounted to 273 nM.

On to `O=C(Nc1cc(COC2OC(COC(=O)c3ccccc3)C(OC3OC4COC(c5ccccc5)OC4C(O)C3O)C(O)C2O)ccc1Cl)c1ccc(C(=O)c2ccccc2)cc1` [Example 71, 4-Benzoyl-N-{5-[(6-benzoyl-oxy-4′,6′-O-benzylidene-β-D-maltosyl)-oxy-methyl]-2-chloro-phenyl}-benzoic acid amide], for which the IC50 worked out at 50 nM.
